Holding throughout (assay type): cell-based
One data set concerns MRSA strain ATCC 700699. The experiment in a line: Minimum Inhibitory Concentration (MIC) assay, Methicillin Resistant S. Aureus. Conditions: Staphylococcus aureus. An excerpt: It has been unexpectedly discovered that substitution of compounds of Formula I and Formula II with a methoxy substituent at the R8 position increases the anti-microbial activity of the compound against Methicillin resistant Staphylococcus Aureus bacteria while at the same time decreasing the cellular toxicity of the compound. The simultaneous increase in compound activity and decrease in compound toxicity provides a greater therapeutic range for compounds of Formula I and Formula II in which R8 is methoxy; i.e. the range of doses of such compounds that will produce beneficial effects without harmful side effects is increased. […] Therapeutic range is determined using a standard assay of cytotoxicity such as the Alamar blue assay provided in Example 10.
The antimicrobial activity of the compounds of the invention may be evaluated by a number of methods, including the following visual minimum inhibitory concentration (MIC) assay. This assay determines the minimum concentration of compound required to inhibit growth of a bacterial strain.
Minimum Inhibitory Concentration (MIC) Assay
Whole-cell antibacterial activity is determined by broth microdilution using conditions recommended by the NCCLS (see National Committee for Clinical Laboratory Standards. 2001. Performance standards for antimicrobial susceptibility testing: 11th informational supplement. Vol. 21, no. 1, M100-S11. National Committee for Clinical Laboratory Standards, Wayne, Pa.). Test compounds are dissolved in DMSO and diluted 1:50 in Mueller-Hinton II broth (Becton-Dickinson) to produce a 256 μg/ml stock solution. In a 96-well microtiter plate, the compound solution is serially two-fold diluted in Mueller-Hinton II broth. After the compounds are diluted, a 50 μl aliquot of the test organism (˜1×10^6 cfu/mL) is added to each well of the microtiter plate. The final test concentrations ranges from 0.125-128 μg/mL. Inoculated plates are incubated in ambient air at 37° C. for 18 to 24 hours. The organisms selected for testing included laboratory strains S. aureus ATCC 29213 and E. coli ATCC 25922 (strains purchased from American Type Culture Collection, Manassas, Va.), S. aureus FQR700699, and Paeruginosa 27853. The minimum inhibitory concentration (MIC) is determined as the lowest concentration of compound that inhibited visible growth of the test organism.

A short description of data set [1]: Cell viability staining with Alamar Blue (cytotoxicity CC50), Hep2. Particulars: human, R6 = F, Hep2 ATCC CCL-23, read-out: hep2 CC50. How it is done:
To determine whether the microcidal effect observed against S. aureus and E. coli is specific to bacterial cells, compounds are screened for cell viability effects on several human cell types.
Optimal cell density is first determined by plating cells in a 96-well plate standard sterile tissue culture plates in 100 μl media, 10% FBS at six cell densities from 500 cells/well to 15,000 cells/well. A cell free well containing only media is used as a control. Cells are incubated at 37° C. in a 5% CO2 incubator for 24 hours. 10% culture volume (10 ul) of Alamar Blue (Biosource, DAL1100, 100 mL) is then added. Cells are incubated at 37° C. in a 5% CO2 incubator and read in a Victor V plate reader, 544 nm excitation, 590 nm emission, at 3, 4, and 24 hours after the addition of Alamar Blue. The cell number vs. change in fluorescence is plotted to determine linearity of signal vs. cell number. The optimal density varies between 500-15,000 cells/well depending on the specific cell type. The optimal density is selected based on the highest number of cells that is still in the linear response range.
Determination of Compound Cytotoxicity
Cells are plated at optimal cell density in a standard sterile tissue culture 96 well plate, and incubated at 37° C. O/N in a 5% CO2 incubator. 12 to 48 hours post-plating media is removed. The cells are washed 1 or 2 times with 1×PBS and replaced with fresh media containing the test compound in 1% DMSO. 24 to 72 hours after addition of compound, the media is removed, and the cells washed 1 to 2 times with 1×PBS. Fresh media containing 1/10 volume of Alamar Blue is then added. Plates are incubated 4 hours at 37° C. in a 5% CO2 incubator and read in a Victor V plate reader, 544 nm excitation, 590 nm emission.
Compounds are diluted to 20 micromolar in 1% DMSO and media and screened in duplicate to obtain single concentration cytotoxicity data. Eight concentration points from 0.78 micromolar to 100 micromolar, run in duplicate, are used to determine cyclotoxicity CC50 values. Cells with 1% DMSO and media are used as a negative control, compounds having a known CC50 against a particular cell type are used as positive controls.
The change in fluorescence vs. concentration of test compound is plotted to determine the cytotoxicity of the compound.
Sample media conditions, optimal plating densities, and positive control compounds for two cell types screened are presented in Table III.

Another data set concerns S. aureus ATCC 29213. The experiment in a line: Minimum Inhibitory Concentration (MIC) assay, S. aureus. Particulars: Staphylococcus aureus, ATCC29213; broth microdilution; read-out: MIC against S. Aureus. The gist of the method: (§1)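 NCCLS broth microdilution in Mueller-Hinton II broth, two-fold dilutions giving final 0.125–128 μg/mL, inoculum ~1×10^6 cfu/mL. Incubated in ambient air at 37 °C for 18–24 h. MIC read as lowest concentration with no visible growth.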
(In general: Broth dilution looks for growth in wells or tubes with falling amounts of substance.)

For a further data set, the system named is E. coli ATCC 25922. In words: Minimum Inhibitory Concentration (MIC) assay, E. coli. Particulars: Escherichia coli, ATCC25922; broth microdilution; read-out: MIC against E. coli. The gist of the method:
as §1

Where [2] appears, read: R6 = F, R8 = Methoxy compounds, MRSA ATCC 700699, read-out: MRSA MIC.
Where [3] appears, read: R6 = F, R8 = H compounds, MRSA ATCC 700699, read-out: MRSA MIC.
The mark [4] stands for this setting: Hep2 cells (ATCC CCL-23), R8 = H compounds.
Where [5] appears, read: Hep2 cells (ATCC CCL-23), R8 = Methoxy compounds.
[6] abbreviates: broth microdilution, read-out: MIC against Methicillin Resistant S. Aureus.

Data on 14 molecules can be found in US8044204B2, “8-methoxy-9H-isothiazolo[5,4-b]quinoline-3,4-diones and related compounds as anti-infective agents” (Achillion Pharmaceuticals, Inc., priority 2005, dated 2011).

As a reminder, the MIC is the lowest concentration that inhibits growth of the organism. What is called CC50 is the concentration at which the toxic effect on the cells reaches its halfway point.

SMILES strings stand for the structures. Converted amounts (≈) assume the structure as drawn. Structures can show the parent of a compound that is named as a salt. Where two headings read alike, the source gives them in different places. Where only a bound is given, the exact number is not on record here.

`COc1c(N2CCNCC2)c(F)cc2c(=O)c3c(=O)[nH]sc3n(C3CC3)c12` [Compound 38, 9-cyclopropyl-6-fluoro-8-methoxy-7-(piperazin-1-yl)isothia-zolo[5,4-b]quinoline-3,4(2H,9H)-dione]: the MIC in the data set on MRSA strain ATCC 700699 (setting [2]) was 4.8 µg/mL (≈ 12.3 µM); in the data set with S. aureus ATCC 29213 it was at most 1 µg/mL; in the data set on E. coli ATCC 25922, at most 1 µg/mL. Besides, the CC50 in data set [1] (R8 = Methoxy compounds) stood at 27 µM.
For the molecule `CC(C)(N)[C@H]1CCN(c2cc3c(cc2F)c(=O)c2c(=O)[nH]sc2n3C2CC2)C1` [Compound 61, (S)-7-(3-(2-aminopropan-2-yl)pyrrolidin-1-yl)-9-cyclopropyl-6-fluoroiso-thiazolo[5,4-b]quinoline-3,4(2H,9H)-dione], the MIC was 16 µg/mL (≈ 39.8 µM) with MRSA strain ATCC 700699 (setting [3]) and at most 1 µg/mL in the data set with S. aureus ATCC 29213. Besides, the CC50 in data set [1] (setting [4]) amounted to 6.1 µM.
Turning to `COc1c(N2CCC(N(C)C)C2)c(F)cc2c(=O)c3c(=O)[nH]sc3n(C3CC3)c12` (centres unmarked) [Compound 49, 9-cyclopropyl-7-(3-(dimethyl-amino)pyrrolidin-1-yl)-6-fluoro-8-methoxy-isothiazolo[5,4-b]quinoline-3,4(2H,9H)-dione], the results for the MIC in the data set on MRSA strain ATCC 700699 (setting [2]), with S. aureus ATCC 29213 and with E. coli ATCC 25922 were 4 µg/mL (≈ 9.56 µM), at most 1 µg/mL and at most 1 µg/mL, respectively. In addition, in data set [1] (setting [5]), the half-maximal cytotoxic concentration (CC50) was 68 µM.
For `CNC(C)(C)[C@@H]1CCN(c2c(F)cc3c(=O)c4c(=O)[nH]sc4n(C4CC4)c3c2OC)C1` [Compound 76, (R)-9-cyclo-propyl-6-fluoro-8-methoxy-7-(3-(2-(methyl-amino)propan-2-yl)pyrrolidin-1-yl)isothia-zolo[5,4-b]quinoline-3,4(2H,9H)-dione], the MIC with MRSA strain ATCC 700699 (setting [2]) was 0.13 µg/mL (≈ 0.291 µM); with MRSA strain ATCC 700699 (setting [6]) it was at most 1 µg/mL; in the data set with S. aureus ATCC 29213, at most 1 µg/mL; with E. coli ATCC 25922 it was at most 1 µg/mL. The CC50 in data set [1] (setting [5]) was 27 µM.
On to `COc1c(N2CC[C@@H](C(C)(C)N)C2)c(F)cc2c(=O)c3c(=O)[nH]sc3n(C3CC3)c12` [Compound 53, (R)-7-(3-(2-aminopropan-2-yl)pyrrolidin-1-yl)-9-cyclopropyl-6-fluoro-8-methoxyiso-thiazolo[5,4-b]quinoline-3,4(2H,9H)-dione], for which the MIC is 0.1 µg/mL (≈ 0.231 µM) in the data set with MRSA strain ATCC 700699 (setting [2]), at most 1 µg/mL with MRSA strain ATCC 700699 (setting [6]), at most 1 µg/mL with S. aureus ATCC 29213 and at most 1 µg/mL in the data set with E. coli ATCC 25922. Moreover, the cytotoxic concentration (CC50) in data set [1] (setting [5]) was found to be 8.5 µM.
Take `O=c1[nH]sc2c1c(=O)c1cc(F)c(N3CC4CCCNC4C3)cc1n2C1CC1` (centres unmarked) [Compound 46, 9-cyclopropyl-6-fluoro-7-(octahydro-pyrrolo[3,4-b]pyridin-6-yl)isothia-zolo[5,4-b]quinoline-3,4(2H,9H)-dione, hydrochloride]: the MIC in the data set with MRSA strain ATCC 700699 (read-out: MRSA MIC) is 4 µg/mL; in the data set with S. aureus ATCC 29213, at most 1 µg/mL; in the data set with E. coli ATCC 25922, at most 1 µg/mL. In data set [1] (setting [4]), the CC50 was 4.7 µM.
Take `CC(C)(N)[C@@H]1CCN(c2cc3c(cc2F)c(=O)c2c(=O)[nH]sc2n3C2CC2)C1` [Compound 52, (R)-7-(3-(2-aminopropan-2-yl)pyrrolidin-1-yl)-9-cyclopropyl-6-fluoroisothia-zolo[5,4-b]quinoline-3,4(2H,9H)-dione, hydrochloride]: the MIC was 0.38 µg/mL in the data set on MRSA strain ATCC 700699 (read-out: MRSA MIC), at most 1 µg/mL in the data set on MRSA strain ATCC 700699 (setting [6]), at most 1 µg/mL in the data set with S. aureus ATCC 29213 and at most 1 µg/mL with E. coli ATCC 25922. For the same molecule, the CC50 in data set [1] (setting [4]) was 0.55 µM.
Take `CN(C)C1CCN(c2cc3c(cc2F)c(=O)c2c(=O)[nH]sc2n3C2CC2)C1` (centres unmarked) [Compound 114, 9-cyclo-propyl-7-(3-(dimethyl-amino)pyrrolidin-1-yl)-6-fluoroiso-thiazolo[5,4-b]quinoline-3,4(2H,9H)-dione]: the MIC in the data set on MRSA strain ATCC 700699 (setting [3]) stood at 2 µg/mL (≈ 5.15 µM). The CC50 in data set [1] (setting [4]) was 3 µM.
As for `NC[C@@H]1CCN(c2cc3c(cc2F)c(=O)c2c(=O)[nH]sc2n3C2CC2)C1` [Compound 64, (S)-7-(3-(aminomethyl)-pyrrolidin-1-yl)-9-cyclopropyl-6-fluoroiso-thiazolo[5,4-b]quinoline-3,4(2H,9H)-dione], the MIC is 1 µg/mL (≈ 2.67 µM) with MRSA strain ATCC 700699 (setting [3]) and at most 1 µg/mL in the data set with S. aureus ATCC 29213. In addition, in data set [1] (setting [4]), the CC50 was determined as 3.1 µM.
On to `COc1c(N2CC[C@@H](C3(N)CC3)C2)ccc2c(=O)c3c(=O)[nH]sc3n(C3CC3)c12` [Compound 56, (R)-7-(3-(1-aminocyclo-propyl)pyrrolidin-1-yl)-9-cyclopropyl-8-methoxy-isothia-zolo[5,4-b]quinoline-3,4(2H,9H)-dione, hydrochloride], for which the MIC in the data set with MRSA strain ATCC 700699 (setting [6]), in the data set on S. aureus ATCC 29213 and in the data set on E. coli ATCC 25922 was at most 1 µg/mL throughout.
Regarding `COc1c(N2CC[C@@H](C(C)NC3CC3)C2)c(F)cc2c(=O)c3c(=O)[nH]sc3n(C3CC3)c12` (stereo partly drawn) [Compound 93, (R)-9-cyclo-propyl-7-(3-(1-(cyclo-propylamino)ethyl)-pyrrolidin-1-yl)-6-fluoro-8-methoxyiso-thiazolo[5,4-b]quinoline-3,4(2H,9H)-dione], the minimum inhibitory concentration (MIC) with MRSA strain ATCC 700699 (setting [6]), in the data set with S. aureus ATCC 29213 and in the data set with E. coli ATCC 25922 was at most 1 µg/mL throughout.
In the case of `CNC[C@@H]1CCN(c2c(F)cc3c(=O)c4c(=O)[nH]sc4n(C4CC4)c3c2OC)C1` [Compound 87, (S)-9-cyclo-propyl-6-fluoro-8-methoxy-7-(3-((methylamino)-methyl)pyrrolidin-1-yl)isothia-zolo[5,4-b]quinoline-3,4(2H,9H)-dione], the MIC in the data set with MRSA strain ATCC 700699 (setting [6]), with S. aureus ATCC 29213 and with E. coli ATCC 25922 was at most 1 µg/mL throughout.
As to `CC(C)(N)C1CCN(c2c(F)cc3c(=O)c4c(=O)[nH]sc4n(C4CC4)c3c2F)C1` (centres unmarked) [Compound 75, 7-(3-(2-amino-propan-2-yl)pyrrolidin-1-yl)-9-cyclo-propyl-6,8-difluoroiso-thiazolo[5,4-b]quinoline-3,4(2H,9H)-dione], the MIC in the data set on MRSA strain ATCC 700699 (setting [6]), with S. aureus ATCC 29213 and in the data set with E. coli ATCC 25922 was at most 1 µg/mL in each case.
As for `COc1c(N2CC[C@@H](C(C)N)C2)c(F)cc2c(=O)c3c(=O)[nH]sc3n(C3CC3)c12` (stereo partly drawn) [Compound 73, (R)-7-(3-(1-aminoethyl)pyrrolidin-1-yl)-9-cyclopropyl-6-fluoro-8-methoxyiso-thiazolo[5,4-b]quinoline-3,4(2H,9H)-dione], the MIC with MRSA strain ATCC 700699 (setting [6]), in the data set on S. aureus ATCC 29213 and with E. coli ATCC 25922 was at most 1 µg/mL each time.
